# Like-named read-outs stand apart in the source and are kept apart here.
# Assays:
# Assay in all cases: Efficacy screening assay
# Format in all cases: cell-based
# 5637 (HTB-9) = tested on: 5637 (HTB-9)
# Description: (§1) labelled fluorogenic peptide substrates: fluorogenic peptide from p53 residues 379-382 (RHKK(Ac)AMC) for HDAC1, 2, 3, 6, 10, 11; fluorogenic HDAC Class IIa Substrate (Trifluoro acetyl Lysine, Ac-LGK(TFA)-AMC) for HDAC 4, 5, 7, 9; and fluorogenic peptide from p53 residues 379-382 (RHK(Ac)K(Ac)AMC) for HDAC8. 1 mg/mL BSA and DMSO was added to the assay buffer (50 mM Tris-HCl, pH 8.0; 137 mM NaCl; 2.7 mM KCl; 1 mM MgCl2) prior to use. In a two-step reaction, the substrate with the acetylated lysine side chain was incubated for with a sample containing HDAC activity to p roduce the deacetylated products: 1 h at 30°C for HDAC1, 2, 3 and 6; 30 min at RT for HDAC4, 5, 7 and 9; 2 h at 30°C for HDAC8, 10 and 11. In a second step, the deacetylated products were digested by the addition of developer for 1 h at 30°C to produce the fluorescent signal proportional to the amount of deacetylated substrates and the fluorescence was measured using an Envision plate reader at 355 nm (excitation) and 460 nm (emission). A kinetic measurement was performed for ~1 h with 5 min intervals and d ata from the final time point were analysed. IC50 values and curve fits were obtained using GraphPad Softwar e.
# (§2) The experiment was performed by Oncolead GmbH & Co. KG (Karlsfeld , Germany), based on a standardized screening procedure . Cell lines were purchased directly from the ATCC, NCI and DSMZ cell line c ollections. Cells used for the study had undergone less than 20 passages. To ensure the absence of potential contamination and wrong assignment, all cell lines were tested using a whole genome assay (Agilent, USA). All cell lines were grown as recommended by the suppliers and with addition of 100 U/mL penicillin G and 100 µg/mL; streptomycin. Cell growth and treatments were performed in Nunclon D 96 -well plates (NUNC, Germany). The optimal seeding density for each cell line was determined to ensure exponential growth for the duration of the experiment. All cells growing without anti-cancer agents were sub-conﬂuent by the end of the treatment, as determined by visual inspection.
# (§3) After an initial 24 h pre-growth period, the compounds were added. The vehicle concentration […]
# (§4) was 0.1% DMSO. After incubation at 37°C for 72 h, the culture medium was aspirated, and the cells were precipitated by the addition of 10% trichloroacetic acid (Sigma-Aldrich, Missouri, US). After overnight incubation at 4°C, the plates were washed three times with deionized water. The precipitates were then stained with SRB (0.4% wt/v sulforhodamine B solution in 1% acetic acid, Sigma-Aldrich, Missouri, US). Afterwards, the plates were washed six times with 1% acetic acid to remove unbound stain. After drying the plates at room temperature, the bound SRB was solubilized with 10 mM Tris base and the optical density was measured at 520 nm using a Victor2 plate reader (Perkin Elmer, Germany). Blank OD values were subtracted from mean OD values for each concentration. The nonlinear curve ﬁtting and EC50 calculations were per formed using XLﬁt and algorithm “205” (ID Business […]
# (§5) For cell-based and other in vitro assays, data are presented as data mean ± SD of at least […]
# (§6) For the orthotopic mouse model, data are presented as mean + SEM. For statistical analysis, one-way ANOVA and multiple comparison (Dunnett) was performed for compound treatments compared to vehicle control. The adjusted p-values with 95% confidence interval were reported as significant. For comparison of EC50 values in Figure 1F, one-way ANOVA with multiple comparison testing (Tukey) was performed. Multiplicity adjusted p -values for the EC50 with sorafenib versus resminostat for each cell line and comparison between cell lines for sorafenib are presented (95% confidence interval for significance testing). For comparison of EC50 data in Figure 2B, one-way ANOVA with multiple comparison testing (Tukey) was performed. Multiplicity adjusted p-values with 95% confidence interval was applied. For the […]
# COLO205 = settings: COLO205, colon
# Description: as §1, §2, §3, §4, §5, §6
# DLD1 = settings: Homo sapiens, DLD-1, DLD1, colon, 72 h
# Description: as §1, §2, §3, §4, §5, §6
# DU145 = settings: DU145, prostate
# Description: as §1, §2, §3, §4, §5, §6
# HEK293 = settings: HEK293, kidney
# Description: as §1, §2, §3, §4, §5, §6
# HepG2 = settings: Homo sapiens, HepG2, 72 h, HEPG2, liver
# Description: as §1, §2, §3, §4, §5, §6
# SF295 = settings: SF295, brain
# Description: as §1, §2, §3, §4, §5, §6
# SKMEL28 = settings: Homo sapiens, SK-MEL-28, SKMEL28, skin, 72 h
# Description: as §1, §2, §3, §4, §5, §6
# SW620 = settings: SW620, colon
# Description: as §1, §2, §3, §4, §5, §6
# TE671 = settings: TE671, muscle
# Description: as §1, §2, §3, §4, §5, §6
# U87MG = settings: 72 h, brain
# Description: as §1, §2, §3, §4, §5, §6
# [1] = log of EC50, negative, read-out: log(EC50) (converted)
smiles,measurement,setting,value
"CN(C)Cc1ccc(S(=O)(=O)n2ccc(/C=C/C(=O)NO)c2)cc1 [resminostat, Resminostat]",EC50,"5637 (HTB-9); 72 h, bladder, log of EC50, negative, read-out: log(EC50) (converted)",1.12 µM
same,EC50,"5637 (HTB-9); 72 h, bladder, read-out: EC50",1.13 µM
same,EC50,"5637 (HTB-9); bladder, 72 h, read-out: EC50",1.13 µM
same,EC50,"COLO205; 72 h, read-out: EC50",2.54 µM
same,EC50,"COLO205; Homo sapiens, COLO 205, 72 h, log of EC50, negative, read-out: log(EC50) (converted)",2.57 µM
same,EC50,"COLO205; Homo sapiens, COLO 205, 72 h, read-out: EC50",2.54 µM
same,EC50,DLD1; [1],1.95 µM
same,EC50,DLD1; read-out: EC50,1.95 µM
same,EC50,"DU145; 72 h, read-out: EC50",1.38 µM
same,EC50,"DU145; Homo sapiens, DU-145, 72 h, log of EC50, negative, read-out: log(EC50) (converted)",1.38 µM
same,EC50,"DU145; Homo sapiens, DU-145, 72 h, read-out: EC50",1.38 µM
same,EC50,"HEK293; 72 h, read-out: EC50",4.76 µM
same,EC50,"HEK293; Homo sapiens, HEK293, 72 h, log of EC50, negative, read-out: log(EC50) (converted)",4.79 µM
same,EC50,"HEK293; Homo sapiens, HEK293, 72 h, read-out: EC50",4.76 µM
same,EC50,HepG2; [1],0.501 µM
same,EC50,HepG2; read-out: EC50,0.504 µM
same,EC50,"SF295; Homo sapiens, SF-295, 72 h, log of EC50, negative, read-out: log(EC50) (converted)",2.51 µM
same,EC50,"SF295; Homo sapiens, SF-295, 72 h, read-out: EC50",2.53 µM
same,EC50,"SF295; 72 h, read-out: EC50",2.53 µM
same,EC50,SKMEL28; [1],3.31 µM
same,EC50,SKMEL28; read-out: EC50,3.34 µM
same,EC50,"SW620; Homo sapiens, SW-620, 72 h, log of EC50, negative, read-out: log(EC50) (converted)",1.29 µM
same,EC50,"SW620; Homo sapiens, SW-620, 72 h, read-out: EC50",1.27 µM
same,EC50,"SW620; 72 h, read-out: EC50",1.27 µM
same,EC50,"TE671; Homo sapiens, TE-671, 72 h, log of EC50, negative, read-out: log(EC50) (converted)",1.35 µM
same,EC50,"TE671; Homo sapiens, TE-671, 72 h, read-out: EC50",1.34 µM
same,EC50,"TE671; 72 h, read-out: EC50",1.34 µM
same,EC50,"U87MG; Homo sapiens, U-87 MG, log of EC50, negative, read-out: log(EC50) (converted)",5.5 µM
same,EC50,"U87MG; Homo sapiens, U-87 MG, read-out: EC50",5.55 µM
same,EC50,U87MG; read-out: EC50,5.55 µM
